US11266715B2, “C3A receptor agonists for use against ischemic brain injury, stroke, traumatic brain injury, spinal cord injury and neurodegenerative disorders” (priority 2016, dated 2022)

System: VGLUT1+ puncta
Test: VGLUT1 immunostaining of dorsal hippocampus after neonatal HI
Format: in vivo, mouse
Conditions: between groups or hemispheres
Description: Neuronal nuclei (NeuN), growth associated protein 43 (GAP-43), synapsin I (SYN), vesicular glutamate transporter 1 (VGLUT1), Glial Fibrillary Acidic Protein (GFAP) and ionized calcium-binding adapter molecule 1 (Iba-1) were visualized in the cornu ammonis (CA) and dentate gyrus (DG) of the dorsal hippocampus by immunohistochemistry. Briefly, following heat-induced antigen retrieval with 0.01 M citrate buffer (pH 6, 0.05% Tween 20) for 3×5 min, sections were washed 3×5 min with PBS-T (0.05% Tween 20), non-specific protein binding was reduced by incubation with blocking buffer [4% normal donkey serum (NeuN and Iba-1), 1% bovine serum albumin (GAP-43 and SYN), 3% normal goat serum (VGLUT1), 2% bovine serum albumin (GFAP) in PBS-T] for 1 h at room temperature (RT). […]
NeuN positive cells, GFAP positive relative area, as well as GAP-43, SYN, and VGLUT1 positive puncta were counted by using MetaMorph software (ver. 7.8.6, Molecular Devices, CA, USA) on confocal images obtained with a 20× (NeuN and GFAP) or 63× (GAP-43, SYN, and VGLUT1) objective (Carl Zeiss LSM 700 Laser Scanning Microscope, Jena, Germany). Iba-1 positive cell somata were counted on bright field images obtained with a 20× objective (Nikon Eclipse 80i). […]

C3a: Purified human C3a peptide (Complement Technologies), C3a receptor agonist, amino acid sequence SEQ ID NO: 1
density or average area of VGLUT1+ puncta in CA1 or dentate gyrus: did not find any differences
